Measured values taken from patent US9121015B2, “Peptide having a vascularization-suppressing activity and a use therefor” (CATHOLIC UNIVERSITY INDUSTRY ACADEMIC COOPERATION FOUNDATION, priority 2010, dated 2015).
“Also recorded” adds a separate entry of the source. Where two headings read alike, the source gives them in different places. No end group written: not given here.

Tests used:
[1] = system: HUVECs; assay: HUVEC proliferation, MTS assay; format: cell-based, human; conditions: for cell viability reduced: 100 μM, compared to untreated control, 5% FBS and 10 ng/ml bFGF; for inhibition of growth of endothelial cells: 5% FBS and bFGF stimulated
Description: Cell proliferation was measured by MTS assay. HUVECs were seeded to gelatin-coated 96-well plate at 1,000 cells/well and incubated in M199 supplement media for 48 h. After 48 h, cells were incubated in serum free M199 medium for 4 h, and then treated with each peptide at indicated concentrations for 30 min. Then, the cells were stimulated with 5% FBS and 10 ng/ml bFGF, and were incubated for 48 or 72 hr. Then, assessment of cell proliferation was done by MTS assay.

[2] = system: HUVECs; assay: endothelial cell migration assay, modified Boyden chamber, VEGF-induced; format: cell-based, human; conditions: for cell migration reduced: VEGF-induced, compared to untreated control; for inhibition of VEGF-induced migration of endothelial cells: 0.1˜100 μM
Description: In order to evaluate the effect of the peptides of the present invention on the cell migration, the present inventors conducted cell migration assay using modified Boyden chamber. HUVECs were treated with each peptide for 30 min and then, the cells were allowed to migrate toward VEGF (2˜5 ng/ml). After 5 h, the migrated cells were fixed and stained with hematoxilin and eosin. The stained cells were photographed and counted.

[3] = system: HUVECs; assay: tube formation assay on Matrigel; format: cell-based, human; conditions: 100 μM; for tube formation inhibited/decreased: compared to control group, tube lengths
Description: Chilled Matrigel (150 μl, BD Bioscience) was placed in a pre-chilled 48-well plate and incubated for 30 min at 37° C. HUVECs were treated with each peptide for 30 min and then added to the top of the solidified Matrigel. After 19 h of incubation, the tubes formed were photographed. Images were analyzed using Image J <http://rsb.info.nih.gov/ij/> to determine tube lengths.
That is, the incubated HUVEC with a new serum-free medium was incubated for 2˜4 hr and harvested the cells. After treating the harvested cells at 100 μM with the respective peptides for 30 min, the cells on the hardened Matrigel was incubated for 11˜19 hr, while observing the degree of tube formation, and measured and calculated the lengths of the tubes formed. As a result, it was observed that all the tested peptides, while varying degrees, inhibited tube formation. […] UP3 decreased tube formation by 47%, and TP1 by approximately 37%.

[4] = system: in vivo angiogenesis; assay: in vivo Matrigel plug assay, hemoglobin by Drabkin's reagent; set-up: species or system C57/BL6 mice; conditions: for plugs with excessive amount of hemoglobin exceeding 500 mg/dl / hemoglobin amount of Matrigel plug, median: 7 days; for hemoglobin amount / in vivo angiogenesis inhibition (words): compared to control group; for hemoglobin amount of Matrigel plug, median: mice, subcutaneous Matrigel with bFGF, VEGF, heparin and peptide
Description: In order to examine the anti-angiogenic activity of the respective peptides in vivo, Matrigel plug assay was performed. 7-week-old C57/BL6 mice (SLC, Japan) were injected subcutaneously in the midventral abdominal region with 0.6 ml of Matrigel containing the bFGF (100 ng/ml), VEGF (100 ng/ml) and heparin (15 unit) with or without peptide. After 7 days, mice were sacrificed by inhalation of CO2 gas and the Matrigel plugs were removed and photographed. To evaluate the formation of vessels, the amount of hemoglobin was quantified using Drabkin's reagent (Sigma). The Matrigel plug was sonicated in RBC lysis buffer (Sigma) and centrifuged at 14000 rpm for 20 min. The supernatant was mixed with Drabkin's reagent and incubated for 3 min. Then, absorbance was measured at 540 nm.

[5] = system: MDAMB231 breast cancer cells; assay: cancer cell migration, modified Boyden chamber assay, EGF-induced; format: cell-based, human
Description: In order to investigate the effect of the respective peptides on cancer cell migration, modified Boyden chamber assay was conducted. MDAMB231 breast cancer cells have EGF receptor and have ability to migrate and metastasize. […] The above results also support that the peptides of the present invention can inhibit cancer cell metastasis.

[6] = system: A549 lung cancer cell line; format: cell-based, human; conditions: 48 hr, 5% FBS
Description: The Effect of the peptides on cancer cell proliferation was investigated using A549 lung cancer cell line. A549 cells were seeded to 96 well plate at 1,000 cells/well and incubated in DMEM medium containing 10% FBS for 48 h. After treatment of each peptide for 30 min, the proliferation of cancer cells was stimulated by 5% FBS alone. After each incubation time, MTS solution was added to each well and incubated for 2 h. Assessment of proliferation was determined by measurement of absorbance at 490 nm.

[7] = 100 μM, compared to untreated control

Compound | cell viability reduced [1] | inhibition of growth of endothelial cells [1] | cell migration reduced ([2]; 100 μM) | inhibition of VEGF-induced migration of endothelial cells [2] | tube formation inhibited/decreased [3] | plugs with excessive amount of hemoglobin exceeding 500 mg/dl [4] | hemoglobin amount / in vivo angiogenesis inhibition (words) [4] | hemoglobin amount of Matrigel plug, median [4] [mg/dL] | inhibition of migration of breast cancer cell [5] | cell migration decreased [5, 7] [%] | inhibition of proliferation of A549 cancer cells (words) [6] | other results
CC(C)C[C@H](NC(=O)[C@@H](NC(=O)[C@@H](NC(=O)[C@H](C)NC(=O)[C@H](CO)NC(=O)[C@H](CC(N)=O)NC(=O)[C@H](Cc1c[nH]c2ccccc12)NC(=O)[C@@H]1CCCN1)[C@@H](C)O)C(C)C)C(=O)N[C@@H](CCC(N)=O)C(=O)N[C@@H](CCC(N)=O)C(=O)N[C@H](C(=O)N[C@@H](Cc1ccc(O)cc1)C(=O)N[C@@H](Cc1c[nH]cn1)C(=O)N[C@@H](C)C(=O)N[C@@H](Cc1c[nH]cn1)C(=O)O)[C@@H](C)O [UP3, PWNSATVLQQTYHAH] | approximately 24% | inhibited growth of endothelial cells | 28.6% | concentration-dependently inhibited; also recorded: significantly inhibition at concentration of 10 μM or above | 47% | showed such plugs with excessive hemoglobin | reduced median value | 4.8 | concentration-dependently inhibited the migration | 81 | – | hemoglobin amount / in vivo angiogenesis inhibition (words) ([4]; listed as UP-3): decreased amount of hemoglobin
PWNSMILIGKVYTAQ [TP3, PWNSMILIGKVYTAQ] | approximately 26.7% | inhibited growth of endothelial cells | – | – | approximately 70% | showed such plugs with excessive hemoglobin | – | – | concentration-dependently inhibited the migration | ~69.4 | concentration-dependently inhibited proliferation | cell migration reduced ([2]; 0.1 μM): 15.4%; inhibition of proliferation of A549 cancer cells (words) ([6]; listed as TP-3): inhibited proliferation of cancer cells concentration-dependently; cell migration decreased ([5]; 1 μM, compared to untreated control): ~30%
PWCYVQVGLKPLVQE [UP7, PWCYVQVGLKPLVQE] | 69.6% | inhibited growth of endothelial cells; also recorded: strong inhibition effect | approximately 72% | concentration-dependently inhibited | – | did not exhibit such plugs | remarkably reduced hemoglobin amount | 16.3 | concentration-dependently inhibited the migration; also recorded: most potent inhibitory effect | 88 | concentration-dependently inhibited proliferation | inhibition of tube formation [3]: did not show any inhibitory effect; hemoglobin amount / in vivo angiogenesis inhibition (words) ([4]; listed as UP-7): decreased amount of hemoglobin; also recorded: most potent inhibitory activity against in vivo angiogenesis; inhibition of proliferation of A549 cancer cells (words) ([6]; listed as UP-7): inhibited proliferation of cancer cells concentration-dependently; cell migration decreased ([5]; 10 μM): approximately 66%
PWCHVLKNRRLTWEY [TP7, PWCHVLKNRRLTWEY] | 65.1% | inhibited growth of endothelial cells; also recorded: strong inhibition effect | 31.4% | concentration-dependently inhibited | approximately 93% | did not exhibit such plugs | decreased amount of hemoglobin | 37.3 | concentration-dependently inhibited the migration | 66.3 | concentration-dependently inhibited proliferation | median value of hemoglobin amount reduced to (vs untreated control) ([4]; without statistical significance): ~51%; inhibition of proliferation of A549 cancer cells (words) ([6]; listed as TP-7): inhibited proliferation of cancer cells concentration-dependently
FGNGSAY [TP1, reference compound] | – | – | – | – | approximately 37% | showed such plugs with excessive hemoglobin | – | – | – | – | – | inhibition of migration of endothelial cells ([2]; 100 μM): did not inhibit the migration of endothelial cells
